Data on two compounds can be found in patent publication US20220175954A1, “HYPOXIA-INDUCING CRYOGELS” (priority 2019, published 2022).

pIC50: −log10 of the molar value.

As usually defined, the pIC50 is −log10 of the IC50, conventionally taken in molar units. The low end stands for a high IC50, the high end for a low IC50.

Experiment [1] deals with 4T1 breast cancer cells. In words: Cancer cell viability under chemotherapeutic drugs in blank cryogels or HICs. It is filed as cell-based. Conditions: for pIC50: Mus musculus. The method, then: IC50 was calculated using a linear regression in the linear part of each curve (Y=mX+n with Y=50 and X=IC50). Data are representative of n=6 samples per set of conditions.
(§1) Data are representative of n=6 samples per set of conditions.
(§2) The capacity of HICs to prevent cancer cell death when exposed to chemotherapeutic drugs was analyzed. 4T1 breast cancer cells or B16-F10 melanoma cells were cultured in normoxia within blank cryogels or HICs and treated with several concentrations of doxorubicin or cisplatin (0.1-100 μM) for 24 h, 48 h, or 72 h. Both 4T1 (FIGS. 24 and 25) and B16-F10 (FIGS. 26 and 27) cells within blank cryogels were sensitive to doxorubicin treatment. […] HICs induced up to 100-fold increase in cancer cell resistance to cisplatin after 72 h compared to blank cryogels.

For experiment [2], the system named is B16-F10 melanoma cells. The experiment is described as above. Type of experiment: cell-based. Conditions: for pIC50: Mus musculus. The method, then: as §1, §2
Where [3] appears, read: after 72 h, stated for 4T1 and B16-F10 together.

Turning to `N.N.[Cl][Pt][Cl]` [cisplatin], the “increase in cancer cell resistance in HICs compared to blank cryogels” value in experiment [1] (setting [3]) and in experiment [2] (setting [3]) was “up to 100 fold” throughout.
With `COc1cccc2c1C(=O)c1c(O)c3c(c(O)c1C2=O)C[C@@](O)(C(=O)CO)C[C@@H]3O[C@H]1C[C@H](N)[C@H](O)[C@H](C)O1` [doxorubicin], the pIC50 was 4.25 in experiment [1] (4T1, 24 h, 4T1 cells in HICs, 24 h); 5.97 in experiment [1] (4T1, 24 h, 4T1 cells within blank cryogels, 24 h); 4.29 in experiment [1] (4T1, 48 h, 4T1 cells in HICs, 48 h); 6.26 in experiment [1] (4T1, 48 h, 4T1 cells within blank cryogels, 48 h); 4.33 in experiment [1] (4T1, 72 h, 4T1 cells in HICs, 72 h); 6.48 in experiment [1] (4T1, 72 h, 4T1 cells within blank cryogels, 72 h). Moreover, the pIC50 in experiment [2] (B16-F10, 24 h, B16-F10 cells in HICs, 24 h) is 4.25; in experiment [2] (B16-F10, 24 h, B16-F10 cells within blank cryogels, 24 h), 6.04; in experiment [2] (B16-F10, 48 h, B16-F10 cells in HICs, 48 h), 4.34; in experiment [2] (B16-F10, 48 h, B16-F10 cells within blank cryogels, 48 h), 6.43; in experiment [2] (B16-F10, 72 h, B16-F10 cells in HICs, 72 h) it was 4.33; in experiment [2] (B16-F10, 72 h, B16-F10 cells within blank cryogels, 72 h), 6.42.
